Source: ChEMBL document CHEMBL5042493, “Enhancing monoamine oxidase B inhibitory activity via chiral fluorination: Structure-activity relationship, biological evaluation, and molecular docking study” (Eur J Med Chem, 2022)

Columns and labels:
[1] = target: Cytochrome P450 2C9 (Homo sapiens, UniProt P11712); test: Inhibition of human CYP2C9 preincubated for 10 min followed by addition of NADPH and measured after 10 min by LC-MS/MS analysis; type: ADME
[2] = Plasma protein binding in rat assessed as unbound fraction at 1 uM measured after 5 hrs by LC-MS/MS analysis; type: ADME, cell-free
[3] = Metabolic stability in rat liver microsome assessed as half life at 1 uM measured after 60 min in presence of NADPH by LC-MS/MS analysis; type: ADME; details: liver microsomes
[4] = Metabolic stability in human liver microsome assessed as half life at 1 uM measured after 60 min in presence of NADPH by LC-MS/MS analysis; type: ADME; details: liver microsomes
[5] = Cmax in Sprague dawley rat at 5 mg/kg, po measured upto 24 hrs; type: ADME, organism-based; set-up: route oral, dose 5 mg/kg, time <=24; details: in vivo
[6] = target: Cytochrome P450 3A5 (Homo sapiens, UniProt P20815); test: Inhibition of human CYP3A5 preincubated for 10 min followed by addition of NADPH and measured after 5 min by LC-MS/MS analysis; type: ADME
[7] = Cmax in Sprague dawley rat at 1 mg/kg, iv measured upto 24 hrs; type: ADME, organism-based; set-up: route intravenous, dose 1 mg/kg, time <=24; details: in vivo
[8] = target: Cytochrome P450 3A4 (Homo sapiens, UniProt P08684); test: Inhibition of human CYP3A4 preincubated for 10 min followed by addition of NADPH and measured after 5 min by LC-MS/MS analysis; type: ADME
[9] = target: T1, Cytochrome P450 2C8 (Homo sapiens, UniProt P10632); test: Inhibition of human CYP2C8 preincubated for 10 min followed by addition of NADPH and measured after 45 min by LC-MS/MS analysis; type: ADME
T1 sequence (P10632 whole entry): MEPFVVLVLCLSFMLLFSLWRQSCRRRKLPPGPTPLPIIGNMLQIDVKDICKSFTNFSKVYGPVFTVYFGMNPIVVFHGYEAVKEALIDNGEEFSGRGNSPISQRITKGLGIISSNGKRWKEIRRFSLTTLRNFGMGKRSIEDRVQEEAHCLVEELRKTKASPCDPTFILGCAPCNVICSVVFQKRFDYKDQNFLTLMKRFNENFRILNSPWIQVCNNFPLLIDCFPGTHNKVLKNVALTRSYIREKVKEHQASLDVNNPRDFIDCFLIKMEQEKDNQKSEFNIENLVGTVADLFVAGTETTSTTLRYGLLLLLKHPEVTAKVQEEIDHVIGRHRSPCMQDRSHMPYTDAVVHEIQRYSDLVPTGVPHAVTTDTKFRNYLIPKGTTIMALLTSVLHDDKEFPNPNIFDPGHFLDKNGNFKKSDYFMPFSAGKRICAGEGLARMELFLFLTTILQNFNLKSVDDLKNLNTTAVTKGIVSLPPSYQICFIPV

[10] = Plasma protein binding in dog assessed as unbound fraction at 1 uM measured after 5 hrs by LC-MS/MS analysis; type: ADME, cell-free, Canis lupus familiaris
[11] = Half life in Cynomolgus monkey at 1 mg/kg, iv measured upto 24 hrs; type: ADME, organism-based, Macaca fascicularis; details: in vivo
[12] = Apparent permeability in MDCK-MDR1 cells from basal to apical side at 10 uM; type: ADME, cell-based, Canis lupus familiaris; details: dog
[13] = Oral bioavailability in Cynomolgus monkey rat at 5 mg/kg measured upto 24 hrs; type: ADME, organism-based, Macaca fascicularis; details: in vivo
[14] = AUC (0-t) in Cynomolgus monkey rat at 5 mg/kg, po measured upto 24 hrs; type: ADME, organism-based, Macaca fascicularis; set-up: route oral, dose 5 mg/kg, time <=24; details: in vivo
[15] = Metabolic stability in dog liver microsome assessed as half life at 1 uM measured after 60 min in presence of NADPH by LC-MS/MS analysis; type: ADME, Canis lupus familiaris; details: liver microsomes
[16] = Apparent permeability in MDCK-MDR1 cells from apical to basal side at 10 uM; type: ADME, cell-based, Canis lupus familiaris; details: dog
[17] = Toxicity in MPTP-induced C57BL/6 mouse model of Parkinson's disease assessed as effect on locomotor activity by measuring rearing activity at 0.625 to 1.25 mg/kg, ip pretreated for 15 mins followed by MPTP challenge and measured after 5 days post MPTP challenge; type: organism-based; details: in vivo, 120 h, dose 0.625-1.25 mg/kg, time 5 day
[18] = target: Cytochrome P450 2D6 (Homo sapiens, UniProt P10635); test: Inhibition of human CYP2D6 preincubated for 10 min followed by addition of NADPH and measured after 10 min by LC-MS/MS analysis; type: ADME
[19] = Volume of distribution at steady state in Cynomolgus monkey at 1 mg/kg, iv measured upto 24 hrs; type: ADME, organism-based, Macaca fascicularis; details: in vivo, read-out: Vdss
[20] = Cmax in Cynomolgus monkey at 1 mg/kg, iv measured upto 24 hrs; type: ADME, organism-based, Macaca fascicularis; set-up: route intravenous, dose 1 mg/kg, time <=24; details: in vivo
[21] = AUC (0-t) in Sprague dawley rat at 1 mg/kg, iv measured upto 24 hrs; type: ADME, organism-based; set-up: route intravenous, dose 1 mg/kg, time <=24; details: in vivo
[22] = Plasma protein binding in mouse assessed as unbound fraction at 1 uM measured after 5 hrs by LC-MS/MS analysis; type: ADME, cell-free
[23] = target: T2, Cytochrome P450 2B6 (Homo sapiens, UniProt P20813); test: Inhibition of human CYP2B6 preincubated for 10 min followed by addition of NADPH and measured after 10 min by LC-MS/MS analysis; type: ADME
T2 sequence (P20813 whole entry): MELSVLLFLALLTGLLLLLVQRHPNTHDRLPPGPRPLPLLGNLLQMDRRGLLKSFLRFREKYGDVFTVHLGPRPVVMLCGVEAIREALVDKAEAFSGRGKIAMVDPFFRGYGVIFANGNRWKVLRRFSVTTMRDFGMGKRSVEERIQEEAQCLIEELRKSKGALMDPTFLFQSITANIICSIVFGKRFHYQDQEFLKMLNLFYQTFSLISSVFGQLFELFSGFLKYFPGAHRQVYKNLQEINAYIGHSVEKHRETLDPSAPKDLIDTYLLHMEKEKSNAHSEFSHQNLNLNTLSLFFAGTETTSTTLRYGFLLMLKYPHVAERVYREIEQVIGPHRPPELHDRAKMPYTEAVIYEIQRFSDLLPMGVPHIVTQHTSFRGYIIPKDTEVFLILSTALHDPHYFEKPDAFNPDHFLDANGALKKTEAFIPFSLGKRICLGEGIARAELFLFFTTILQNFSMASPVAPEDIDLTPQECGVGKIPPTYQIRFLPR

[24] = AUC (0-t) in Sprague dawley rat at 5 mg/kg, po measured upto 24 hrs; type: ADME, organism-based; set-up: route oral, dose 5 mg/kg, time <=24; details: in vivo

Cytochrome P450 3A4, sequence (P08684 whole entry): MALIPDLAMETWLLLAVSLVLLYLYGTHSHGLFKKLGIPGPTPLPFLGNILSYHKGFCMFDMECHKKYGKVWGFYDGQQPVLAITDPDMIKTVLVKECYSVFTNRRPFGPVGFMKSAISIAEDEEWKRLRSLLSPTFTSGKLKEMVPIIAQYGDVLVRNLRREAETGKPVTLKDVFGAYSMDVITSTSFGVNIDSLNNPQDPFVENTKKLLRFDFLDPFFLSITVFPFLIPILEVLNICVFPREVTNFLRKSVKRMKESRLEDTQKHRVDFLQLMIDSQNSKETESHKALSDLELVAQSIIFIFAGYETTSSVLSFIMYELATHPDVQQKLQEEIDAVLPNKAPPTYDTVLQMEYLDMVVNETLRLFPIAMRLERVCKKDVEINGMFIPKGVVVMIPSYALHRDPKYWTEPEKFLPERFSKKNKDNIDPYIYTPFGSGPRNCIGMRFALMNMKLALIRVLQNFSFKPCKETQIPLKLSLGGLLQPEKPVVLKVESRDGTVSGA
Cytochrome P450 2D6, sequence (P10635 whole entry): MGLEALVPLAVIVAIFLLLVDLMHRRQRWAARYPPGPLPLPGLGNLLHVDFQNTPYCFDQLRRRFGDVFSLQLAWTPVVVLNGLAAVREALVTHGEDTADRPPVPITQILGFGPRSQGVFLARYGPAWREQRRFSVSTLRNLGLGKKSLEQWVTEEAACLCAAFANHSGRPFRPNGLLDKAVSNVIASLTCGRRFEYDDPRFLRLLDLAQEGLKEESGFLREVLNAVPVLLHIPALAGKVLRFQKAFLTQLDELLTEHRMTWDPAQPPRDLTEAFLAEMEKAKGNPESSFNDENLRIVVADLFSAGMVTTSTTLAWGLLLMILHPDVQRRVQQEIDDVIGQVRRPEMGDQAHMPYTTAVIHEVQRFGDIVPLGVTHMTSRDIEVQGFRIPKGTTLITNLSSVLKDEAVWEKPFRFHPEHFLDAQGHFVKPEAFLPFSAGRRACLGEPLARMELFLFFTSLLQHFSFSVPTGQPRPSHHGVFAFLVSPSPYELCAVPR
Cytochrome P450 3A5, sequence (P20815 whole entry): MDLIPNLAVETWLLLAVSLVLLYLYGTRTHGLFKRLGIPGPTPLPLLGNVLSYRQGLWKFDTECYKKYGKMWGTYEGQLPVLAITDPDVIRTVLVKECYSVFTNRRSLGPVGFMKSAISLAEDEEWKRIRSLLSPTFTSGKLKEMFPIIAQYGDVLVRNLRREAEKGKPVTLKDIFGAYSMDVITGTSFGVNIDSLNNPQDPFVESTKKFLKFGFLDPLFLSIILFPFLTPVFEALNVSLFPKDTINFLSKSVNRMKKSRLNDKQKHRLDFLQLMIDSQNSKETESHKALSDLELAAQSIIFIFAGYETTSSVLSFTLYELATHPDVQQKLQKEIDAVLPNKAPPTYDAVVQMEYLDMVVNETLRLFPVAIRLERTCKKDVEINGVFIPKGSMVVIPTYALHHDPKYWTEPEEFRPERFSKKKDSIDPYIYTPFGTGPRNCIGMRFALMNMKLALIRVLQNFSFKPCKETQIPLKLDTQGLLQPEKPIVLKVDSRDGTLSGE
Cytochrome P450 2C9, sequence (P11712 whole entry): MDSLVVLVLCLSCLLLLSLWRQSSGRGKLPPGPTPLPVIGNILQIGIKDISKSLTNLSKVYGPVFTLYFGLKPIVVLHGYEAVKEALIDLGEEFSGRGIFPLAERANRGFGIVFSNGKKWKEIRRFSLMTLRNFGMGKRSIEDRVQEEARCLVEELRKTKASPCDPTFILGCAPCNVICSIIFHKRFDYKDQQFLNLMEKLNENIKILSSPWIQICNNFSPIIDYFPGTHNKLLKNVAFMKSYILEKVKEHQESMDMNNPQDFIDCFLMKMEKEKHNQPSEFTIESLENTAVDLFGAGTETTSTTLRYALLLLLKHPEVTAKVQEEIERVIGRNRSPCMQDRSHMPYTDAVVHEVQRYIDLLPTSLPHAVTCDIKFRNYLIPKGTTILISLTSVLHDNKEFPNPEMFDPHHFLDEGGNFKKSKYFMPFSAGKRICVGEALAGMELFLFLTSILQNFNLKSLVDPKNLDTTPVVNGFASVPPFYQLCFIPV

IC50 [1]: > 29 µM
fraction unbound at 5 h, 1 µM [2]: 0.0504
half-life at 1 µM [3]: 0.192 h
half-life at 1 µM [4]: 2.23 h
Cmax [5]: 1000 ng/mL
IC50 [6]: > 29 µM
Cmax [7]: 690 ng/mL
IC50 [8]: > 29 µM
IC50 [9]: > 29 µM
fraction unbound at 5 h, 1 µM [10]: 0.0429
half-life [11]: 1.77 h
Papp B→A at 10 µM [12]: 22.8 ×10⁻⁶ cm/s
bioavailability [13]: 107%
AUC(0-t) at 24 h [14]: 11300 ng·h/mL
half-life at 1 µM [15]: 0.851 h
Papp A→B at 10 µM [16]: 28.9 ×10⁻⁶ cm/s
IC50 [18]: > 29 µM
Vd [19]: 1.06 L/kg
Cmax [20]: 924 ng/mL
AUC(0-t) at 24 h [21]: 505 ng·h/mL
fraction unbound at 5 h, 1 µM [22]: 0.0516
IC50 [23]: > 29 µM
AUC(0-t) at 24 h [24]: 1400 ng·h/mL
Structure (SMILES): NC(=O)[C@@H]1C[C@H](F)CN1Cc1ccc(OCc2cccc(F)c2)cc1
Activity [17]: Non-Toxic
